From the PolyMetriX glass transition set come the findings set out here.

Molecules are shown by their SMILES.

Take `*/C(=C(/*)c1ccc[c]([Ge]([CH3])([CH3])[CH3])c1)c1ccccc1` (repeat unit): the glass transition temperature turned out to be 200.00 °C.

`*/C(=C/c1cc(OC)c(/C=C(\c2ccccc2)c2ccc(-c3ccc(*)cc3)cc2)cc1OC)c1ccccc1` (repeat unit): the glass transition temperature is 223.00 °C.

For `*/C(C#N)=C/c1cc(OCC(CC)CCCC)c(/C=C(\C#N)c2ccc3c4ccc(*)cc4n(CC(CC)CCCC)c3c2)cc1OCC(CC)CCCC` (repeat unit), the glass transition temperature worked out at 72.00 °C.

With `*/C(C#N)=C/c1cc(OCCCCCCCCCCCCCCCC)c(/C=C(\C#N)c2cc(OCCCCCCCCCCCCCCCC)c(*)cc2OC)cc1OC` (repeat unit), the glass transition temperature was 190.00 °C.

Consider `*/C=C(/c1ccc(*)cc1)c1ccc(C(F)(F)F)cc1` (repeat unit), for which the glass transition temperature is 199.00 °C.

`*/C=C(\C#N)C(=O)NC1CCCCC1NC(=O)/C(C#N)=C/c1ccc(/C=C/c2ccc(N(c3ccccc3)c3ccc(N(c4ccccc4)c4ccc(/C=C/c5ccc(*)s5)cc4)cc3)cc2)s1` (repeat unit) registered a glass transition temperature of 240.00 °C.

`*/C=C(\C#N)c1cccc(/C(C#N)=C/c2ccc(/C=C/c3ccc(N(c4ccccc4)c4ccc(N(c5ccccc5)c5ccc(/C=C/c6ccc(*)s6)cc5)cc4)cc3)s2)c1` (repeat unit) yielded a glass transition temperature of 178.00 °C.

On to `*/C=C/C(C(=O)OCC)C(*)C(=O)OCC` (repeat unit), for which the glass transition temperature came to 6.00 °C.

In turn, `*/C=C/C1C/C(=C\C)C(*)C1` (repeat unit) yielded a glass transition temperature of 121.00 °C.

Consider `*/C=C/C1CC(*)C(C#N)(CC)C1` (repeat unit), for which the glass transition temperature is 134.00 °C.

`*/C=C/C1CC(*)C(C#N)(CCC)C1` (repeat unit) showed a glass transition temperature of 108.00 °C.

`*/C=C/C1CC(*)C(C#N)(CCCC)C1` (repeat unit) had a glass transition temperature of 87.00 °C.

Compound `*/C=C/C1CC(*)C(C#N)(C[Si](C)(C)C)C1` (repeat unit) came in with a glass transition temperature of 128.00 °C.

Compound `*/C=C/C1CC(*)C(C#N)([Si](C)(C)O[Si](C)(C)O[Si](C)(C)C)C1` (repeat unit) returned a glass transition temperature of 47.00 °C.

With `*/C=C/C1CC(*)C(C#N)C1` (repeat unit), the glass transition temperature amounted to 140.00 °C.

For `*/C=C/C1CC(*)C(C(=O)OC)C1C(=O)OC` (repeat unit), the glass transition temperature was 77.30 °C.

The compound `*/C=C/C1CC(*)C(C(=O)OCCCCCCCCCCCOc2ccc(-c3ccc(C#N)cc3)cc2)C1C(=O)OCCCCCCCCCCCOc1ccc(-c2ccc(C#N)cc2)cc1` (repeat unit) had a glass transition temperature of 23.10 °C.

Consider `*/C=C/C1CC(*)C(C(=O)OCCCCCCOc2ccc(-c3ccc(C#N)cc3)cc2)C1C(=O)OCCCCCCOc1ccc(-c2ccc(C#N)cc2)cc1` (repeat unit), for which the glass transition temperature is 55.80 °C.

Take `*/C=C/C1CC(*)C2C(=O)N(CCCC)C(=O)C12` (repeat unit): the glass transition temperature amounted to 131.00 °C.

Take `*/C=C/C1CC(*)C2C(=O)N(CCCCC)C(=O)C12` (repeat unit): the glass transition temperature was determined as 99.00 °C.

`*/C=C/C1CC(*)C2C(=O)N(CCCCCC)C(=O)C12` (repeat unit) yielded a glass transition temperature of 87.00 °C.

As to `*/C=C/C1CC(*)C2C(=O)N(CCCCCCCC)C(=O)C12` (repeat unit), the glass transition temperature is 56.50 °C.

With `*/C=C/C1CC(*)C2C(=O)N(CCCCCCCCC)C(=O)C12` (repeat unit), the glass transition temperature worked out at 52.00 °C.

For `*/C=C/C1CC(*)C2C(=O)N(CCCCCCCCCC)C(=O)C12` (repeat unit), the glass transition temperature came to 46.00 °C.

The compound `*/C=C/C1CC(*)C2C(=O)N(c3cc(C(F)(F)F)cc(C(F)(F)F)c3)C(=O)C12` (repeat unit) registered a glass transition temperature of 162.00 °C.

`*/C=C/C1CC(*)C2C(=O)N(c3ccccc3)C(=O)C12` (repeat unit) registered a glass transition temperature of 220.00 °C.

`*/C=C/c1sc(-c2ccc(-c3ccc(-c4sc(/C=C/C5=CC(=C(C#N)C#N)C=C(*)O5)c(CCCCCC)c4CCCCCC)s3)s2)c(CCCCCC)c1CCCCCC` (repeat unit): the glass transition temperature amounted to 112.00 °C.

On to `*/C=C/c1sc(-c2ccc3c(c2)C(CCCCCC)(CCCCCC)c2cc(-c4sc(/C=C/C5=CC(=C(C#N)C#N)C=C(*)O5)c(CCCCCC)c4CCCCCC)ccc2-3)c(CCCCCC)c1CCCCCC` (repeat unit), for which the glass transition temperature is 115.00 °C.

`*C1CCOC1*` (repeat unit) displayed a glass transition temperature of 131.00 °C.

In the case of `*C1OCCCC1C1C(=O)OC(=O)C1*` (repeat unit), the glass transition temperature turned out to be 210.00 °C.

On to `*C1c2cccc3cccc(c23)C1*` (repeat unit), for which the glass transition temperature worked out at 250.00 °C.

`*CC(C)(/C=C(/*)C)C(=O)OC` (repeat unit) returned a glass transition temperature of 24.00 °C.

Take `*CC(O)COC(=O)CCCCCCCCC(=O)OCC(O)COc1ccc(/C=C(\C)c2ccc(O*)cc2)cc1` (repeat unit): the glass transition temperature is 30.00 °C.

Compound `*CCCCCCCCCCOc1c(OC)cc(/C=C2\CCC/C(=C\c3cc(OC)c(O*)c(OC)c3)C2=O)cc1OC` (repeat unit) gave a glass transition temperature of 49.00 °C.

The compound `*CCCCCCCCOc1ccc(/C=C2\CCC/C(=C\c3ccc(O*)c(OC)c3)C2=O)cc1OC` (repeat unit) returned a glass transition temperature of 72.00 °C.

Compound `*CCCCCCCCOc1ccc(/C=C2\CCC/C(=C\c3ccc(O*)cc3)C2=O)cc1` (repeat unit) yielded a glass transition temperature of 90.00 °C.

Compound `*CCCCOC(=O)C(Cc1ccccc1)NC(=O)/C=C/C(=O)NC(Cc1ccccc1)C(=O)O*` (repeat unit) displayed a glass transition temperature of 103.00 °C.

For the compound `*CCOc1ccc(/C=C2\CC/C(=C\c3ccc(OCCOP(=O)(O*)OC)c(OC)c3)C2=O)cc1OC` (repeat unit), the glass transition temperature came to 99.00 °C.

Consider `*NNC(=O)/C=C/C(=O)NCCCCCCNC(=O)/C=C/C(*)=O` (repeat unit), for which the glass transition temperature amounted to 102.40 °C.

Compound `*NNC(=O)/C=C/C(=O)Nc1cccc(/C=C2\CCC/C(=C\c3cccc(NC(=O)/C=C/C(*)=O)c3)C2=O)c1` (repeat unit) registered a glass transition temperature of 238.40 °C.

Turning to `*OC(=O)/C=C/C(=O)OC1COC2C(*)COC12` (repeat unit), the glass transition temperature was 60.00 °C.

`*Oc1ccc(/C(=C/c2cc(OC)c(/C=C(/c3ccc(*)cc3)c3ccc(F)cc3)cc2OC)c2ccc(F)cc2)cc1` (repeat unit) displayed a glass transition temperature of 187.00 °C.

`*Oc1ccc(/C=C2\CC/C(=C\c3ccc(OC(=O)c4ccc(/N=C/c5ccc(/C=N/c6ccc(C(*)=O)cc6)cc5)cc4)c(OC)c3)C2=O)cc1OC` (repeat unit) yielded a glass transition temperature of 140.00 °C.

Turning to `*Oc1ccc(/C=C2\CCC/C(=C\c3ccc(OC(=O)CCCCCCCCC(*)=O)c(OC)c3)C2=O)cc1OC` (repeat unit), the glass transition temperature is 48.1 °C.

`*Oc1ccc(NC(=O)/C=C/C(=O)NNC(=O)/C=C/C(=O)Nc2ccc(OC(=O)c3ccccc3C(=O)NNC(=O)c3ccccc3C(*)=O)cc2)cc1` (repeat unit): the glass transition temperature came out at 240.00 °C.

For the compound `*c1ccc(/C=C(\C#N)C(=O)NC2CCCCC2NC(=O)/C(C#N)=C/c2ccc(N(c3ccccc3)c3ccc(N(*)c4ccccc4)cc3)cc2)cc1` (repeat unit), the glass transition temperature was 239.00 °C.
